Reference: paper PMC12327690, “Secreted LysM proteins are required for niche competition and full virulence in Pseudomonas savastanoi during host plant infection” (PLOS Pathogens, 2025)

Target: T1, LysM3 (Pseudomonas savastanoi, UniProt Q48F89)
T1 construct: gene PSPPH_3810; LysM + M23 domains; pET28a::lysM3 in E. coli BL21(DE3), HisTrap IMAC then SEC
Test: nanoDSF (Tycho NT.[…]) thermal shift
Type: binding
Settings: 1 mM ligand, 5 µM protein, no Zn2+, 20 mM Hepes pH 8.0, 150 mM NaCl

T1 sequence (Q48F89 entry or part of it): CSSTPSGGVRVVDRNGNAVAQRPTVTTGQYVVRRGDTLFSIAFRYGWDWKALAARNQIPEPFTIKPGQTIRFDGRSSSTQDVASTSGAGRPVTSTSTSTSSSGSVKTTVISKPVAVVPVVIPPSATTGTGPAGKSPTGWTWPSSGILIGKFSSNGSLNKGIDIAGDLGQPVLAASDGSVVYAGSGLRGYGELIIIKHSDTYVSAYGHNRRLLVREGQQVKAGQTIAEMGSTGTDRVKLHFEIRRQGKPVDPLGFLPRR

SMILES | Ti with ligand (LysM3 alone 51.4 ± 0.1) [°C]
CC(=O)N[C@H]1[C@H](O[C@H]2[C@H](O)[C@@H](NC(C)=O)C(O)O[C@@H]2CO)O[C@H](CO)[C@@H](O[C@@H]2O[C@H](CO)[C@@H](O[C@@H]3O[C@H](CO)[C@@H](O)[C@H](O)[C@H]3NC(C)=O)[C@H](O)[C@H]2NC(C)=O)[C@@H]1O (some centres unmarked) [NAG4, tetra-N-acetylglucosamine] | 52.9 ± 0.1
CC(=O)N[C@H]1[C@H](O[C@H]2[C@H](O)[C@@H](NC(C)=O)[C@H](O[C@H]3[C@H](O)[C@@H](NC(C)=O)C(O)O[C@@H]3CO)O[C@@H]2CO)O[C@H](CO)[C@@H](O[C@@H]2O[C@H](CO)[C@@H](O[C@@H]3O[C@H](CO)[C@@H](O[C@@H]4O[C@H](CO)[C@@H](O)[C@H](O)[C@H]4NC(C)=O)[C@H](O)[C@H]3NC(C)=O)[C@H](O)[C@H]2NC(C)=O)[C@@H]1O (some centres unmarked) [NAG6, hexa-N-acetylglucosamine] | 52.7 ± 0.4
